From US20250381198A1 (Melt Pharmaceuticals, Inc., priority 2024, published 2025)
Marks after values point to notes of the source that are not given here.

Tested on: subjects undergoing cataract extraction with lens replacement (CELR)
Test: Phase 3: adverse events (safety analysis set)
Format: in vivo, human
Description: The safety of MELT-300 was performed at baseline, in the course of surgery (intraoperatively), postoperatively on Day 1, and on Day 3+1 day post dose of study medication. Safety assessment included monitoring of AEs, vital sign measurements, and physical examinations.
An overview of adverse events (AEs) is provided in TABLE 57 for the safety analysis set. Reported data includes an overall summary of the presence of any AEs, treatment-emergent ocular adverse events (TEAEs), treatment-related TEAEs, TEAE of special interest (TEAESI), serious AEs (SEAs), and treatment-emergent SAEs (TESAE). Categories were not mutually exclusive. Results include the number of subjects, percent of subjects, and number of events in each category, respectively. A summary of treatment-emergence adverse events (TEAEs) by location, system organ class, and preferred term for the safety analysis set is provided in TABLE 58. A summary of treatment-related treatment-emergent adverse events (TRTEAEs) by system organ class, and preferred term for the safety analysis set is provided in TABLE 59. No SAEs (overall), TESAEs, or treatment-related TESAEs were observed. No SAEs resulting in death or discontinuation of the study was observed.

[1] = Location: Non-Ocular, Safety Analysis Set
[2] = Location: Non-Ocular, Safety analysis set
[3] = Location: Ocular, Safety Analysis Set
[4] = Location: Ocular, Safety analysis set

Cc1ncc2n1-c1ccc(Cl)cc1C(c1ccccc1F)=NC2 [Midazolam, 8-chloro-6-(2-fluorophenyl)-1-methyl-4H-imidazo[1,5-a][1,4]benzodiazepine]
TEAE: Amnesia [1]: 0 n
TEAE: Anxiety [1]: 0 n
TEAE: Back pain [1]: 0 n
TEAE: Balance disorder [1]: 0 n
TEAE: Blood pressure increased [1]: 0 n
TEAE: Blood pressure systolic increased [1]: 0 n
TEAE: Bradycardia [1]: 0 n
TEAE: Cardiac disorders (System Organ Class) [1]: 0 n
TEAE: Cough [1]: 0 n
TEAE: Dental local anaesthesia [1]: 0 n
TEAE: Dizziness [1]: 0 n
TEAE: Fatigue [1]: 0 n
TEAE: Gastrointestinal disorders (System Organ Class) [1]: 0 n
TEAE: General disorders and administration site conditions (System Organ Class) [1]: 0 n
TEAE: Hiccups [1]: 0 n
TEAE: Hypertension [1]: 0 n
TEAE: Hypoaesthesia oral [1]: 0 n
TEAE: Infections and infestations (System Organ Class) [1]: 0 n
TEAE: Injury, poisoning and procedural complications (System Organ Class) [1]: 0 n
TEAE: Investigations (System Organ Class) [1]: 0 n
TEAE: Lethargy [1]: 0 n
TEAE: Musculoskeletal and connective tissue disorders (System Organ Class) [1]: 0 n
TEAE: Myalgia [1]: 0 n
TEAE: Nasal Discomfort [1]: 0 n
TEAE: Nausea [1]: 0 n
TEAE: Neck pain [1]: 0 n
TEAE: Oxygen saturation decreased [1]: 0 n
TEAE: Post procedural hypotension [1]: 0 n
TEAE: Procedural nausea [1]: 0 n
TEAE: Procedural vomiting [1]: 0 n
TEAE: Product after taste [1]: 0 n
TEAE: Product issues (System Organ Class) [1]: 0 n
TEAE: Psychiatric disorders (System Organ Class) [1]: 0 n
TEAE: Pyrexia [1]: 0 n
TEAE: Sinusitis [1]: 0 n
TEAE: Surgical and medical procedures (System Organ Class) [1]: 0 n
TEAE: Tachycardia [1]: 0 n
TEAE: Taste disorder [1]: 0 n
TEAE: Vascular disorders (System Organ Class) [1]: 0 n
Any AE, events [2]: 9 #
Any AE, subjects [2]: 7 (7.9) n (%)
Any Grade 3+ TEAE, events [2]: 0 #
Any Grade 3+ TEAE, subjects [2]: 0 n (%)
Any SAE, events [2]: 0 #
Any SAE, subjects [2]: 0 n (%)
Any TEAE Resulting in Death, events [2]: 0 #
Any TEAE Resulting in Death, subjects [2]: 0 n (%)
Any TEAE Resulting in Study Drug Interruption, events [2]: 0 #
Any TEAE Resulting in Study Drug Interruption, subjects [2]: 0 n (%)
Any TEAE Resulting in Study Drug Withdrawal, events [2]: 0 #
Any TEAE Resulting in Study Drug Withdrawal, subjects [2]: 0 n (%)
Any TEAE, events [2]: 5 #
Any TEAE, subjects [2]: 4 (4.5) n (%)
Any TEAESI, events [2]: 2 #
Any TEAESI, subjects [2]: 2 (2.2) n (%)
Any TESAE, events [2]: 0 #
Any TESAE, subjects [2]: 0 n (%)
Any Treatment-Related TEAE Resulting in Death, events [2]: 0 #
Any Treatment-Related TEAE Resulting in Death, subjects [2]: 0 n (%)
Any Treatment-Related TEAE, events [2]: 3 #
Any Treatment-Related TEAE, subjects [2]: 2 (2.2) n (%)
Any Treatment-Related TEAESI, events [2]: 1 #
Any Treatment-Related TEAESI, subjects [2]: 1 (1.1) n (%)
Any Treatment-Related TESAE, events [2]: 0 #
Any Treatment-Related TESAE, subjects [2]: 0 n (%)
Any Unexpected TEAE, events [2]: 0 #
Any Unexpected TEAE, subjects [2]: 0 n (%)
Any Unexpected Treatment-Related TEAE, events [2]: 0 #
Any Unexpected Treatment-Related TEAE, subjects [2]: 0 n (%)
TEAESI: Abuse-related AEs, events [2]: 0 #
TEAESI: Abuse-related AEs, subjects [2]: 0 n (%)
TEAESI: Cardiovascular AEs, events [2]: 1 #
TEAESI: Cardiovascular AEs, subjects [2]: 1 (1.1) n (%)
TEAESI: Ketamine emergence delirium, events [2]: 0 #
TEAESI: Ketamine emergence delirium, subjects [2]: 0 n (%)
TEAESI: Neurocognitive AEs, events [2]: 0 #
TEAESI: Neurocognitive AEs, subjects [2]: 0 n (%)
TEAESI: Oral/pharyngeal AEs, events [2]: 0 #
TEAESI: Oral/pharyngeal AEs, subjects [2]: 0 n (%)
TEAESI: Oversedation requiring the use of flumazenil, events [2]: 0 #
TEAESI: Oversedation requiring the use of flumazenil, subjects [2]: 0 n (%)
TEAESI: Respiratory AEs, events [2]: 1 #
TEAESI: Respiratory AEs, subjects [2]: 1 (1.1) n (%)
TEAE: Abnormal sensation in eye [3]: 0 n
TEAE: Corneal abrasion [3]: 0 n
TEAE: Corneal oedema [3]: 0 n
TEAE: Diplopia [3]: 0 n
TEAE: General disorders and administration site conditions (System Organ Class) [3]: 0 n
TEAE: Glare [3]: 0 n
TEAE: Injury, poisoning and procedural complications (System Organ Class) [3]: 0 n
TEAE: Installation site pain [3]: 0 n
TEAE: Lacrimation increased [3]: 0 n
TEAE: Ocular discomfort [3]: 0 n
TEAE: Photophobia [3]: 0 n
TEAE: Photopsia [3]: 0 n
TEAE: Procedural pain [3]: 0 n
TEAE: Visual field defect [3]: 0 n
TEAE: Visual impairment [3]: 0 n
Any AE, events [4]: 15 #
Any AE, subjects [4]: 10 (11.2) n (%)
Any Grade 3+ TEAE, events [4]: 0 #
Any Grade 3+ TEAE, subjects [4]: 0 n (%)
Any Grade 3+ Treatment-Related TEAE, events [4]: 0 #
Any Grade 3+ Treatment-Related TEAE, subjects [4]: 0 n (%)
Any SAE, events [4]: 0 #
Any SAE, subjects [4]: 0 n (%)
Any TEAE Resulting in Death, events [4]: 0 #
Any TEAE Resulting in Death, subjects [4]: 0 n (%)
Any TEAE Resulting in Study Drug Interruption, events [4]: 0 #
Any TEAE Resulting in Study Drug Interruption, subjects [4]: 0 n (%)
Any TEAE Resulting in Study Drug Withdrawal, events [4]: 0 #
Any TEAE Resulting in Study Drug Withdrawal, subjects [4]: 0 n (%)
Any TEAE, events [4]: 15 #
Any TEAE, subjects [4]: 10 (11.2) n (%)
Any TEAESI, events [4]: 0 #
Any TEAESI, subjects [4]: 2 (2.2) n (%)
Any TESAE, events [4]: 0 #
Any TESAE, subjects [4]: 0 n (%)
Any Treatment-Related TEAE, events [4]: 1 #
Any Treatment-Related TEAE, subjects [4]: 1 (1.1) n (%)
Any Treatment-Related TEAESI, events [4]: 0 #
Any Treatment-Related TEAESI, subjects [4]: 0 n (%)
Any Treatment-Related TESAE, events [4]: 0 #
Any Treatment-Related TESAE, subjects [4]: 0 n (%)
Any Unexpected TEAE, events [4]: 9 #
Any Unexpected TEAE, subjects [4]: 6 (6.7) n (%)
Any Unexpected Treatment-Related TEAE, events [4]: 0 #
